According to PubChem BioAssay (NCI):
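Abbreviation: GI50, concentration required for 50% inhibition of growth. TGI: concentration producing complete growth inhibition.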

Experiments:
Test in all cases: NCI tumour cell line growth inhibition, 384-well format
BT-549 breast = test system: BT-549 breast
HCT-116 colon = test system: HCT-116 colon
HS 578T breast = test system: HS 578T breast
M14 melanoma = test system: M14 melanoma
MOLT-4 leukemia = test system: MOLT-4 leukemia
NCI-H23 lung = test system: NCI-H23 lung
NCI-H322M lung = test system: NCI-H322M lung
PC-3 prostate = test system: PC-3 prostate
RXF 393 renal = test system: RXF 393 renal
SF-295 CNS = test system: SF-295 CNS
SNB-19 CNS = test system: SNB-19 CNS
SW-620 colon = test system: SW-620 colon
UACC-62 melanoma = test system: UACC-62 melanoma

## Cc1ccc2c(Nc3cccc(Cl)c3F)ncc(NC(=O)c3csc4c(N)ncnc34)c2c1
BT-549 breast
  GI50: 22.8 µM
  TGI: > 100 µM
HCT-116 colon
  GI50: 0.162 µM
  TGI: 19.8 µM
HS 578T breast
  GI50: 0.931 µM
  TGI: 63.4 µM
M14 melanoma
  GI50: 0.0224 µM
  TGI: 0.186 µM
MOLT-4 leukemia
  GI50: 21.8 µM
  TGI: > 100 µM
NCI-H23 lung
  GI50: 0.0761 µM
  TGI: 4.46 µM
NCI-H322M lung
  GI50: 17.4 µM
  TGI: > 100 µM
PC-3 prostate
  GI50: 57.3 µM
  TGI: > 100 µM
RXF 393 renal
  GI50: 0.968 µM
  TGI: 95.7 µM
SF-295 CNS
  GI50: 93.7 µM
  TGI: > 100 µM
SNB-19 CNS
  GI50: 55 µM
  TGI: > 100 µM
SW-620 colon
  GI50: 0.721 µM
  TGI: > 100 µM
UACC-62 melanoma
  GI50: 0.0251 µM
  TGI: 0.209 µM
